Data from ChEMBL document CHEMBL1201862, “PubChem BioAssay data set” (2004).
The source made the active and inactive calls.

Assays:
CAAX prenyl protease 2 = CAAX prenyl protease 2 (Homo sapiens, UniProt Q9Y256); assay: inhibition of Ras-converting CAAX protease Rce1 – biochemical, yeast membranes, quenched-peptide fluorescence, cherry-pick, dose response (AID 588849)
[1] = fluconazole-exposed Candida albicans growth modulators – fluorescence, retest, confirmation (AID 2467); type: functional, cell-based
[2] = target: ATP-dependent molecular chaperone HSP82 (Candida albicans (strain WO-1) (Yeast), UniProt C4YTQ8); assay: steroid-induced GRE reporter decrease in yeast – S. cerevisiae, luminescence, Hsp90 inhibitor project, dose response (AID 2400); type: functional, cell-based;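 note: beta-galactosidase luminescence from glucocorticoid response element reporter as proxy for Hsp90 function; inhibitor potency where signal loss means Hsp90 inhibition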
Chain of ATP-dependent molecular chaperone HSP82 (C4YTQ8 whole entry): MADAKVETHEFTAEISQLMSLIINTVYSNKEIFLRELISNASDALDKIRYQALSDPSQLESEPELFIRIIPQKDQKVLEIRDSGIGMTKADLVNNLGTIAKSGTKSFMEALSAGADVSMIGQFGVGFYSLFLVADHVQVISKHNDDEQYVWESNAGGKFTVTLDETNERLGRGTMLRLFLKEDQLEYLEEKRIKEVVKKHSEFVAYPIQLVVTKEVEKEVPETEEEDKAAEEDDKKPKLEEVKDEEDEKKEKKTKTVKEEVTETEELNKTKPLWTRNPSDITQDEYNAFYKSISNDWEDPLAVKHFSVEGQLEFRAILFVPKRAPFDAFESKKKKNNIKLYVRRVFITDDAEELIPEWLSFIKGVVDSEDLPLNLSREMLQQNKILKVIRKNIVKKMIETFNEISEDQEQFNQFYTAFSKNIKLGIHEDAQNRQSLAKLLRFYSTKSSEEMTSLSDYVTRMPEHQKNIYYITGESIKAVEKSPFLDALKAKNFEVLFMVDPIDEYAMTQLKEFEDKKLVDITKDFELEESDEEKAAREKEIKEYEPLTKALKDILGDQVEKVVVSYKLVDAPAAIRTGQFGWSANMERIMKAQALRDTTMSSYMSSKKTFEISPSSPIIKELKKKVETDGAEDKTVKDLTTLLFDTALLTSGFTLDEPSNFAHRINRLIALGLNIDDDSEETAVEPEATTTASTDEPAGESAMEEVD

[3] = NIH-3T3 fibroblast cytotoxicity, dose response, cytotoxicity control, cell-based, fluorescence, Alamar Blue, secondary assay (AID 2327); type: functional;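 note: NIH-3T3 mouse fibroblasts cultured with fluconazole at 8 µg/mL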
[4] = target: Serine/threonine-protein phosphatase (Candida dubliniensis (strain CD36 / CBS 7987 / NCPF 3949 / NRRLY-17841) (Yeast), UniProt B9W6M3); assay: blockers of CaCl2-induced CDRE-lacZ signaling – S. cerevisiae, luminescence, secondary, dose response (AID 2388); type: functional, cell-based;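 note: yeast reporter cells carrying a calcineurin-responsive lacZ construct stimulated with calcium chloride; luminescent beta-galactosidase reporter signal in whole cells rather than isolated phosphatase activity; potency for inhibition where a drop in reporter signal means calcineurin blockade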
Chain of Serine/threonine-protein phosphatase (B9W6M3 whole entry): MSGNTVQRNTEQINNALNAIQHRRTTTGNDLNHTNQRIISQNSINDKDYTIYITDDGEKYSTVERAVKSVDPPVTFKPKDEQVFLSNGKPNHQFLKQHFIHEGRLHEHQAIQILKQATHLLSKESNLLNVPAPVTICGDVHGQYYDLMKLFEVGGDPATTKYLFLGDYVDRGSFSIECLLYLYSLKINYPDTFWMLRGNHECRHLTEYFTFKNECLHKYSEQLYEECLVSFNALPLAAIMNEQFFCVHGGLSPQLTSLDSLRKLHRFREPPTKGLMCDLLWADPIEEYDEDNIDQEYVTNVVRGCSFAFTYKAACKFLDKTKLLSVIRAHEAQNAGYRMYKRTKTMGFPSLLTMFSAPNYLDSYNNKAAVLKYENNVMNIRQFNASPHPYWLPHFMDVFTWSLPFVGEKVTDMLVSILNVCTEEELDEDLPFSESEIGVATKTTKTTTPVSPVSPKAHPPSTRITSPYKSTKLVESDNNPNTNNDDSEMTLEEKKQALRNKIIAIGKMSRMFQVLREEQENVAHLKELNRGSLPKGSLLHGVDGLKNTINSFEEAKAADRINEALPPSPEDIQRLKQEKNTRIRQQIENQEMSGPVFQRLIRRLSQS

HeLa = assay: viability loss in HeLa cells – cell-based, 24 h, cherry-picked samples, cytotoxicity control, dose response (AID 504726); type: functional; conditions: Homo sapiens;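 note: potency for cytotoxicity as loss of luminescence signal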
[5] = Luminescence Cell-Based Dose Response HTS to Identify Activators of Luciferase Translation or Activity in H4-C Neuroglioblastoma Cells. [Related pubchem assays: 1829 (Project Summary), 1814 (Primary HTS)]; type: functional
Keap1/Nrf2 = Keap1/Nrf2 (Homo sapiens, UniProt Q14145); assay: disruptors of Keap1 binding to Nrf2 peptide – biochemical, fluorescence polarization, cherry-picked samples, dose response (AID 588683)
[6] = Luminescence Cell-Based Dose Response HTS to Identify Inhibitors of 5'UTR Stem-Loop Driven Prion Protein mRNA Translation in H4 Neuroglioblastoma Cells. [Related pubchem assays: 1827 (Project Summary), 1813 (Primary HTS)]; type: functional
[7] = luciferase reporter signal suppression in cells – H4 neuroglioma cells, luminescence, dose response (AID 1990); type: functional, cell-based
[8] = alpha-synuclein stem-loop luciferase translation blockers – H4 neuroglioma cells, luminescence, confirmation (AID 1988); type: functional, cell-based
[9] = Luminescence Cell-Based Dose HTS Response to Identify Inhibitors of 5'UTR Stem-Loop Driven Prion Protein mRNA Translation in H4-C Neuroglioblastoma Cells. [Related pubchem assays (depositor defined):AID1814, AID1827]; type: functional
Troponin, cardiac muscle = Troponin, cardiac muscle (Homo sapiens, UniProt P19429+P45379+P63316); assay: Fluorescence-based biochemical high throughput dose response assay for activators of the calcium sensitivity of cardiac Regulated Thin Filaments (RTF). [Related pubchem assays (depositor defined):AID493008, AID493018, AID504382, AID504383]; type: protein-complex assay
[10] = target: UDP-galactopyranose mutase (Mycobacterium tuberculosis, UniProt P9WIQ1); assay: Inhibitors of Mycobacterium tuberculosis UDP-galactopyranose mutase (UGM) enzyme Measured in Biochemical System Using Plate Reader - 2105-02_Inhibitor_Dose_CherryPick_Activity. [Related pubchem assays (depositor defined):AID504439]
Chain of UDP-galactopyranose mutase (P9WIQ1 whole entry): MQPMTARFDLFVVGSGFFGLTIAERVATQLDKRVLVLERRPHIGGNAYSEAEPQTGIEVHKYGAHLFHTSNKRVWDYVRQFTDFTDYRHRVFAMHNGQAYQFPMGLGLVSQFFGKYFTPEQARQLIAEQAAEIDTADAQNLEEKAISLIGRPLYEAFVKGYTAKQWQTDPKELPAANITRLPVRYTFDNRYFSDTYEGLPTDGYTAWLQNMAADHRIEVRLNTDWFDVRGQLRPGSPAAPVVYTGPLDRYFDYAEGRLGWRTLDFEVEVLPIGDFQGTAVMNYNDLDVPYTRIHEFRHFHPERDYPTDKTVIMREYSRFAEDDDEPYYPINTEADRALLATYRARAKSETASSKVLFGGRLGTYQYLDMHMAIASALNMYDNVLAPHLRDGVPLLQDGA

ORF 73 = ORF 73 (Human herpesvirus 8, UniProt O40947); assay: KSHV LANA DNA-binding disruption – biochemical, fluorescence polarization, cherry-picked samples, dose response (AID 504725); parameters: species or system Human gammaherpesvirus 8;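 note: fluorescence polarization of a labeled DNA duplex reporting LANA DNA binding; potency is for inhibitors that block LANA binding to the DNA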
Chain of ORF 73 (O40947 whole entry): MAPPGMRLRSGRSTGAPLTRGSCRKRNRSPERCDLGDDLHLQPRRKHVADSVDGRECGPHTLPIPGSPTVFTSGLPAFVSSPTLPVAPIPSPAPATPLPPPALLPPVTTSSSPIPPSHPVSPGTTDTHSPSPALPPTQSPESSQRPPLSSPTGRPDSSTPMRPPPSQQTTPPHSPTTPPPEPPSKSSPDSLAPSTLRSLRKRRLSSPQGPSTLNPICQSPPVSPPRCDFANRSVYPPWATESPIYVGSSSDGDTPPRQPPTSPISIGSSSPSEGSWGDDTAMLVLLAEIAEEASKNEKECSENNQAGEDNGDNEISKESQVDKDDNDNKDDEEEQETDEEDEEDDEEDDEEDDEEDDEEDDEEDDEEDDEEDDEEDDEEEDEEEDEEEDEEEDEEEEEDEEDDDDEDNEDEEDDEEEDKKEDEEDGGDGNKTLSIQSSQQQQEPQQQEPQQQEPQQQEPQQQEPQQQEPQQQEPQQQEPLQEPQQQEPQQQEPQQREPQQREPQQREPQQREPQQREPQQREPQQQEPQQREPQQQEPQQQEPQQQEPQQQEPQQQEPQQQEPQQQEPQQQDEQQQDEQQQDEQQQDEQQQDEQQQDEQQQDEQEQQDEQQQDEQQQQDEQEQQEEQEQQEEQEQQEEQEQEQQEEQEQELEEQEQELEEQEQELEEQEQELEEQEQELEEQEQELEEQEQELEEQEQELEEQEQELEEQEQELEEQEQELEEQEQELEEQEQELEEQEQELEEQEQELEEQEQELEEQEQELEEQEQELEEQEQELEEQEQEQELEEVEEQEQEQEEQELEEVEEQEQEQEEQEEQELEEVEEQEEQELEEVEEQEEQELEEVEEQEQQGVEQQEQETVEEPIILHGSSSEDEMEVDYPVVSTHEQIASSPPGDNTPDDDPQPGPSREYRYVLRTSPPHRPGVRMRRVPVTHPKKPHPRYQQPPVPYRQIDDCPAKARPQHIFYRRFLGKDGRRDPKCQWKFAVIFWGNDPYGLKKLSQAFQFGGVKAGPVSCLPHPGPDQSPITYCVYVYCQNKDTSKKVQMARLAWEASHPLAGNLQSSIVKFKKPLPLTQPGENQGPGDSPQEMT

[11] = Luminescence Cell-Based Dose Response HTS to Identify Activators of 5'UTR Stem-Loop Driven Prion Protein mRNA Translation in H4-C Neuroglioblastoma Cells. [Related pubchem assays: 1829 (Project Summary), 1814 (Primary HTS)]; type: functional
[12] = Luminescence Cell-Based Dose Retest to Confirm Activators of 5'UTR Stem-Loop Driven Alpha-Synuclein mRNA Translation in H4 Neuroglioblastoma Cells. [Related pubchem assays (depositor defined):AID1813, AID1829]; type: functional
[13] = Luminescence Cell-Based Dose Response HTS to Identify Inhibitors of Luciferase Translation or Activity in H4-C Neuroglioblastoma Cells. [Related pubchem assays: 1813 (Primary HTS), 1827 (Project Summary)]; type: functional
[14] = Luminescence Cell-Based Dose Confirmation HTS to Identify Inhibitors of 5'UTR Stem-Loop Driven Alpha-Synuclein mRNA Translation in H4 Neuroglioblastoma Cells. [Related pubchem assays: 1827 (Project Summary), 1813 (Primary HTS)]; type: functional
[15] = target: T1, Short transient receptor potential channel 4 (Mus musculus, UniProt Q9QUQ5); assay: calcium entry via TRPC4 opening agents – cell-based, HEK293 TRPC4/mu-opioid, Fluo-4 calcium, dose response (AID 434937); type: functional
T1 sequence (Q9QUQ5 whole entry): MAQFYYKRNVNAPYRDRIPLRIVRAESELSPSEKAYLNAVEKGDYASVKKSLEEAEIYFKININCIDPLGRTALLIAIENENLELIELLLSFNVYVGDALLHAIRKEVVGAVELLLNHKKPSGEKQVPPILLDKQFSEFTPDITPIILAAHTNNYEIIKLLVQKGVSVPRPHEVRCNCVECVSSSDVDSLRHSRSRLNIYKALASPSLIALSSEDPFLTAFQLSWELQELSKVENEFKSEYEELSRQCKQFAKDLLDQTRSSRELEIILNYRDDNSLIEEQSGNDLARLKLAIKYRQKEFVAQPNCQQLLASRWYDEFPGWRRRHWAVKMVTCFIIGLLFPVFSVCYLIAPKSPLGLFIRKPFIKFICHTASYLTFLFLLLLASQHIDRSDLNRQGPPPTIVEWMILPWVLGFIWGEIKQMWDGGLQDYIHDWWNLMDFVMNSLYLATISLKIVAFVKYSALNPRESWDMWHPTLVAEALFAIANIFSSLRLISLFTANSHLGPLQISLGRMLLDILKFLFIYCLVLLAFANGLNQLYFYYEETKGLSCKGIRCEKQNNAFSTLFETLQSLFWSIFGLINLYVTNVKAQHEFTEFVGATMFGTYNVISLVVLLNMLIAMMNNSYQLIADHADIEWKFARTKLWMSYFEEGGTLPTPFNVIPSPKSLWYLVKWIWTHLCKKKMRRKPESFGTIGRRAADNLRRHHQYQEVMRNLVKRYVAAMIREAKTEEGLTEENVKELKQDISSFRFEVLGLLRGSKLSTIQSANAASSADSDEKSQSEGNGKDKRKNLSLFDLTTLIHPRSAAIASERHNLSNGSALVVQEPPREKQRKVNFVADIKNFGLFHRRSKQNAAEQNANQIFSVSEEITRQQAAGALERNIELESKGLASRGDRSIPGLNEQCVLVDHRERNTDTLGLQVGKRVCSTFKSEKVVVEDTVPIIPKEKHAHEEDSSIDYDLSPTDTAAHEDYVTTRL

[16] = target: 5-hydroxytryptamine receptor 5A (Homo sapiens, UniProt P47898); assay: Counterscreen for agonists of OPRM1-OPRD1 heterodimerization: luminescence-based cell-based high throughput dose response assay to identify agonists of 5-hydroxytryptamine (serotonin) 5A receptor (HTR5A). [Related pubchem assays (depositor defined):AID504326, AID504355, AID504692, AID504904, AID504905]; type: functional
Chain of 5-hydroxytryptamine receptor 5A (P47898 whole entry): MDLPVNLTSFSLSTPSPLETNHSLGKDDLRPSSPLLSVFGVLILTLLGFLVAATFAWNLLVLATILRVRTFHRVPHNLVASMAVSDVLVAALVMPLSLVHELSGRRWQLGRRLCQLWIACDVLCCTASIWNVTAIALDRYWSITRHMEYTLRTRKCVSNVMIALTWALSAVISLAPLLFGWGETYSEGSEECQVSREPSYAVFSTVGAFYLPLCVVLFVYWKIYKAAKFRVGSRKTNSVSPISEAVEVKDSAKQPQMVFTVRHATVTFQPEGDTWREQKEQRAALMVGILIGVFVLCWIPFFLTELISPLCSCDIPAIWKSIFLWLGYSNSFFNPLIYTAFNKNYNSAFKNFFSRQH

Mu-type opioid receptor = Mu-type opioid receptor (Homo sapiens, UniProt P35372); assay: (§1) Counterscreen for agonists of heterodimerization of the mu 1 (OPRM1) and delta 1 (OPRD1) opioid receptors: Luminescence-based cell-based high throughput dose response assay to identify agonists of OPRM1 homodimerization.; type: functional
Chain of Mu-type opioid receptor (P35372 whole entry): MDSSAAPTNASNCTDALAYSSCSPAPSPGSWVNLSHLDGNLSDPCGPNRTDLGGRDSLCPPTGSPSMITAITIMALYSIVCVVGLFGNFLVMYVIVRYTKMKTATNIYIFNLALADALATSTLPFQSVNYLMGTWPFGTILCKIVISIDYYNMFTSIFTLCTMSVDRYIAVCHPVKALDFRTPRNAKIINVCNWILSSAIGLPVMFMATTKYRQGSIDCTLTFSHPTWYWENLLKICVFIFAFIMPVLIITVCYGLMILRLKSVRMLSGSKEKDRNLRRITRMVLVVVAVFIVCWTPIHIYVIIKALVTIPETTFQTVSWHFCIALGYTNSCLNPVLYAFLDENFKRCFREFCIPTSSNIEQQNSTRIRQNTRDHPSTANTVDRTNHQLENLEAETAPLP

[17] = target: Delta-type opioid receptor (Homo sapiens, UniProt P41143); assay: as §1, with “of OPRD1” for “of OPRM1”, “homodimerization. [Related pubchem assays (depositor defined):AID504326, AID504355, AID504692, AID504904, AID504905]” for “homodimerization.”; type: functional
[18] = target: Voltage-gated inwardly rectifying potassium channel KCNH2 (Homo sapiens, UniProt Q12809);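 note: confirmatory quantitative high-throughput screen measuring inhibition of hERG channel activity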
Chain of Voltage-gated inwardly rectifying potassium channel KCNH2 (Q12809 whole entry): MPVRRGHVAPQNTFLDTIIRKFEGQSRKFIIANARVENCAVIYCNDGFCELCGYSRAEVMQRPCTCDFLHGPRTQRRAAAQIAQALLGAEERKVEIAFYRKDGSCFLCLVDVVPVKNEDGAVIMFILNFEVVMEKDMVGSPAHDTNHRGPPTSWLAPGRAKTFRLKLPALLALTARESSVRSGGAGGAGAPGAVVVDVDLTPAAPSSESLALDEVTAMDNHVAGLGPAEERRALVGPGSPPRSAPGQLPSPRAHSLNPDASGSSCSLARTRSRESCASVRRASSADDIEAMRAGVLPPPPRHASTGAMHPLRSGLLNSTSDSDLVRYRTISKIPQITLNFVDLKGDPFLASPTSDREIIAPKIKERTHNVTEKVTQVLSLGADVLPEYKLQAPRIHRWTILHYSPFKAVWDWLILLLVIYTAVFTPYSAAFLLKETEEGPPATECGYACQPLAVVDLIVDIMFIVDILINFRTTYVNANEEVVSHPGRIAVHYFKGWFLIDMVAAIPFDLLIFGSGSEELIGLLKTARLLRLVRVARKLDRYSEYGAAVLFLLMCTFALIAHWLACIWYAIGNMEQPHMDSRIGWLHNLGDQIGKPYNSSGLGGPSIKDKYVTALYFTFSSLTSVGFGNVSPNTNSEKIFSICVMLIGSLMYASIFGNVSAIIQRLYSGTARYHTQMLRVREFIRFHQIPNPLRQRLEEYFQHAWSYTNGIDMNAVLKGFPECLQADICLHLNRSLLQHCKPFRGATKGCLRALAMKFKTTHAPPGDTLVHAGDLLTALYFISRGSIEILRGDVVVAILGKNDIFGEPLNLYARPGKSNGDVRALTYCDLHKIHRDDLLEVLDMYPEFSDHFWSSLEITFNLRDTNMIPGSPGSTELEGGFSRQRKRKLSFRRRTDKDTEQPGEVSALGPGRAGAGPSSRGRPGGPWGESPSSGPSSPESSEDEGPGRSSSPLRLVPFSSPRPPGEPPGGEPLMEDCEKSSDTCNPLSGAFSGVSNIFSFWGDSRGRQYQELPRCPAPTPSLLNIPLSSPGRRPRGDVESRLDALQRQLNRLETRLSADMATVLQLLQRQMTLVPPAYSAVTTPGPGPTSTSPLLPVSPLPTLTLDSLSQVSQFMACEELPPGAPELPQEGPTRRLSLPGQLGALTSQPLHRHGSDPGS

Chain of CAAX prenyl protease 2 (Q9Y256 whole entry): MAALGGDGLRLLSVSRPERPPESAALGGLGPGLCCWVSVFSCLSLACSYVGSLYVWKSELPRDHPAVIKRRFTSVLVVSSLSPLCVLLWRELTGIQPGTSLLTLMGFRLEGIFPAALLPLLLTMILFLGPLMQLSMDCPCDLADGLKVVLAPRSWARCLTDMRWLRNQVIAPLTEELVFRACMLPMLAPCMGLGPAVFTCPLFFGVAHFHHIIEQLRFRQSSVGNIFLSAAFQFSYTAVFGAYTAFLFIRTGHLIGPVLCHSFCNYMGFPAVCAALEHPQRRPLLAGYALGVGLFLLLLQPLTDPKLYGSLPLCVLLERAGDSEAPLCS

In the case of `CC(C)C(NC(=O)c1ccco1)C(=O)NCC(c1ccco1)N1CCCCC1` (centres undefined), the AC50 (CAAX prenyl protease 2) is reported as 48.9 µM (active).
For `COc1cc2c(cc1NC(=O)c1ccco1)CCCC2`, the EC50 [1] was 0.841 µM (active), the EC50 [2] was > 150 µM (inactive) and the EC50 [3] was > 150 µM (inactive). For the same molecule, the EC50 [4] was > 180 µM (inactive).
For `O=C(OCCN1C(=O)c2cccc3c(N4CCOCC4)ccc(c23)C1=O)c1ccc(Cl)cc1Cl`, the AC50 (HeLa) was 16.5 µM (active), the EC50 [5] was 2.14 µM (inconclusive) and the AC50 (Keap1/Nrf2) was 7.59 µM (active). For the same molecule, the EC50 [6] was 12 µM (active), the EC50 [7] was 9.06 µM (inconclusive) and the EC50 [8] was 0.331 µM (active). For the same molecule, the EC50 [9] was 0.722 µM (active), the EC50 (Troponin, cardiac muscle) was 1.11 µM (active) and the AC50 [10] was 5.23 µM (active). The AC50 (ORF 73) was 15.5 µM (active), the EC50 [11] was 0.722 µM (inconclusive) and the EC50 [12] was 6.15 µM (inconclusive). The EC50 [13] was 2.14 µM (active) and the EC50 [14] was 6.15 µM (active).
With `CCC(=O)OC1(c2cccc(C)c2)CC(C)N(C)CC1C` (centres undefined) the EC50 [15] was 0.335 µM (active), the EC50 [16] was > 92.5 µM (inactive) and the EC50 (Mu-type opioid receptor) was > 92.5 µM (inactive). The EC50 [17] was > 92.5 µM (inactive).
With `Cl.c1ccc2c(c1)[IH]c1ccccc1-2` the Potency [18] was 35.4813 µM.
